Assay results published in US20240252474A1, “METHODS AND COMPOSITIONS COMPRISING A CARDIO-TOLERATED HDAC INHIBITOR” (HUYABIO International, LLC, priority 2023, published 2024).

Experiment: Phase 1b safety and tolerability of HBI-8000 combined with nivolumab (DLTs, TEAEs)
Type: in vivo
Conditions: for Dose-limiting toxicity (DLT): + nivolumab, 28 days
Procedure: The present example, was a Phase Ib/2 open-label dose finding study for HBI-8000 (also referred to in the art as “chidamide” or “tucidinostat” and also referred to herein as a compound of formula I) in combination with nivolumab in patients with advanced solid tumors, including melanoma, RCC (renal cell carcinoma), and NSCLC (non-small cell lung cancer). This study was conducted in accordance with Good Clinical Practice guidelines and the Declaration of Helsinki and with assurance/approval from the US Department of Health and Human Services; the protocol was approved by the institutional review boards or ethics committees of all participating sites. All patients provided written informed consent to participate before enrollment. […]
HBI-8000 at three dose levels (20 mg, 30 mg, and 40 mg) given orally twice a week (BIW) were evaluated. Doses were taken approximate 30 minutes after a meal. The starting dose (20 mg) was selected based on pharmacokinetic profiles established for monotherapy in Japanese patients with T-cell lymphoma.
The decision to escalate the dose was based on the conventional 3+3 design and observed incidences of dose-limiting toxicities (DLTs). Each treatment cycle was defined as 28 days. […] Subjects experiencing DLT within the first two weeks after having received 100% of assigned dose of HBI-8000 are also evaluable for DLT. Unacceptable toxicities were defined as grade 3 or higher non-hematologic and hematologic toxicities with clinical complications. Unacceptable toxicities observed over the first 28 days following HBI-8000 administration were considered as DLTs. […] HBI-8000 administration continued until disease progression or unacceptable toxicity was observed. The efficacy of the combination was further evaluated in an expanded cohort of selected patient populations at RP2D based on an objective response rate according to Response Evaluation Criteria in Solid Tumors (RECIST) version 1.1 criteria, progression-free survival, and duration of responses.
Safety evaluations included physical examinations, vital signs, ECGs, ECOG performance status, and laboratory tests.
Statistical analyses of safety, tolerability, and anti-tumor activity were primarily descriptive in nature. Toxicities were tabulated by type and grade. The safety population included all patients who received ≥1 dose of HBI-8000 and nivolumab. Continuous variables were summarized using descriptive statistics and categorical variables were summarized with number and percentage at each category. Pharmacokinetic parameters were derived using noncompartmental methods with Phoenix® WinNonlin® Version 6.4 (Certara, L. P., Princeton, NJ, USA).

[1] = 40 mg HBI-8000 BIW + nivolumab, N = 7
[2] = 20, 30 and 40 mg HBI-8000 + nivolumab, N = 17

Nc1cc(F)ccc1NC(=O)c1ccc(CNC(=O)/C=C/c2cccnc2)cc1 [HBI-8000, N-(2-amino-4-fluorophenyl)-4-[[[(2E)-1-oxo-3-(3-pyridinyl)-2-propen-1-yl]amino]methyl]benzamide]
Any SAE, number of subjects [1]: 4 n
Any TEAE, number of subjects [1]: 7 n
Aspartate aminotransferase increased, All, G < 3 [1]: 1 (14) n (%)
Aspartate aminotransferase increased, Related Both, Any G [1]: 1 (14) n (%)
Atrial fibrillation, All, G < 3 [1]: 2 (29) n (%)
Atrial fibrillation, All, G ≥ 3 [1]: 1 (14) n (%)
Atrial fibrillation, Related Both, Any G [1]: 1 (14) n (%)
Contusion, All, G < 3 [1]: 3 (43) n (%)
Contusion, Related Both, Any G [1]: 2 (29) n (%)
Contusion, Related HBI, Any G [1]: 1 (14) n (%)
Decreased appetite, All, G < 3 [1]: 3 (43) n (%)
Decreased appetite, All, G ≥ 3 [1]: 1 (14) n (%)
Decreased appetite, Related Both, Any G [1]: 1 (14) n (%)
Decreased appetite, Related HBI, Any G [1]: 2 (29) n (%)
Dehydration, All, G < 3 [1]: 2 (29) n (%)
Diarrhoea, All, G < 3 [1]: 2 (29) n (%)
Diarrhoea, All, G ≥ 3 [1]: 1 (14) n (%)
Diarrhoea, Related Both, Any G [1]: 2 (29) n (%)
Diarrhoea, Related HBI, Any G [1]: 1 (14) n (%)
Dizziness, All, G < 3 [1]: 2 (29) n (%)
Dizziness, Related Both, Any G [1]: 1 (14) n (%)
Dizziness, Related HBI, Any G [1]: 1 (14) n (%)
Dyspnoea, All, G < 3 [1]: 3 (43) n (%)
Dyspnoea, All, G ≥ 3 [1]: 1 (14) n (%)
Dyspnoea, Related Both, Any G [1]: 1 (14) n (%)
Fall, All, G < 3 [1]: 2 (29) n (%)
Fatigue, All, G < 3 [1]: 2 (29) n (%)
Fatigue, All, G ≥ 3 [1]: 2 (29) n (%)
Fatigue, Related Both, Any G [1]: 2 (29) n (%)
Fatigue, Related HBI, Any G [1]: 1 (14) n (%)
Headache, All, G < 3 [1]: 1 (14) n (%)
Headache, All, G ≥ 3 [1]: 1 (14) n (%)
Headache, Related Both, Any G [1]: 1 (14) n (%)
Headache, Related HBI, Any G [1]: 1 (14) n (%)
Hypocalcaemia, All, G < 3 [1]: 2 (29) n (%)
Hypocalcaemia, Related Both, Any G [1]: 1 (14) n (%)
Hypocalcaemia, Related HBI, Any G [1]: 1 (14) n (%)
Hypokalemia, All, G < 3 [1]: 1 (14) n (%)
Hypokalemia, Related Both, Any G [1]: 1 (14) n (%)
Hypophosphataemia, All, G < 3 [1]: 2 (29) n (%)
Hypophosphataemia, Related Both, Any G [1]: 1 (14) n (%)
Hypophosphataemia, Related HBI, Any G [1]: 1 (14) n (%)
Hypotension, All, G < 3 [1]: 3 (43) n (%)
Hypotension, Related Both, Any G [1]: 1 (14) n (%)
Lipase increased, All, G < 3 [1]: 1 (14) n (%)
Lipase increased, Related Both, Any G [1]: 1 (14) n (%)
Lymphocyte count decreased, All, G < 3 [1]: 2 (29) n (%)
Lymphocyte count decreased, Related Both, Any G [1]: 2 (29) n (%)
Nausea, All, G < 3 [1]: 3 (43) n (%)
Nausea, Related Both, Any G [1]: 2 (29) n (%)
Nausea, Related HBI, Any G [1]: 2 (29) n (%)
Neutrophil count decreased, All, G < 3 [1]: 2 (29) n (%)
Neutrophil count decreased, All, G ≥ 3 [1]: 1 (14) n (%)
Neutrophil count decreased, Related Both, Any G [1]: 1 (14) n (%)
Neutrophil count decreased, Related HBI, Any G [1]: 1 (14) n (%)
Non-cardiac chest pain, All, G < 3 [1]: 2 (29) n (%)
Non-cardiac chest pain, Related HBI, Any G [1]: 1 (14) n (%)
Oedema peripheral, All, G < 3 [1]: 2 (29) n (%)
Oedema peripheral, Related Both, Any G [1]: 1 (14) n (%)
Platelet count decreased, All, G < 3 [1]: 3 (43) n (%)
Platelet count decreased, Related Both, Any G [1]: 1 (14) n (%)
Platelet count decreased, Related HBI, Any G [1]: 2 (29) n (%)
Pleural effusion, All, G < 3 [1]: 2 (29) n (%)
SAE related to HBI-8000 & Nivolumab, number of subjects [1]: 0 n
SAE related to HBI-8000 alone, number of subjects [1]: 0 n
TEAE related to HBI-8000 & Nivolumab, number of subjects [1]: 3 n
TEAE related to HBI-8000 alone, number of subjects [1]: 6 n
TEAE resulting in discontinuation of HBI-8000 alone, number of subjects [1]: 2 n
TEAE resulting in discontinuation of both HBI-8000 and Nivo, number of subjects [1]: 2 n
Vomiting, All, G < 3 [1]: 2 (29) n (%)
Vomiting, Related Both, Any G [1]: 2 (29) n (%)
Weight decreased, All, G < 3 [1]: 1 (14) n (%)
Weight decreased, Related Both, Any G [1]: 1 (14) n (%)
White blood cell count decreased, All, G < 3 [1]: 3 (43) n (%)
White blood cell count decreased, Related Both, Any G [1]: 1 (14) n (%)
White blood cell count decreased, Related HBI, Any G [1]: 2 (29) n (%)
Incidence of TEAE related to HBI-8000 alone versus dose (20, 30, 40 mg BIW + nivolumab): appeared to increase with escalating HBI-8000 dose
Alanine aminotransferase increased, Total [2]: 4 (24) n (%)
Anaemia, Total [2]: 8 (47) n (%)
Aspartate aminotransferase increased, Total [2]: 4 (24) n (%)
Atrial fibrillation, Total [2]: 4 (24) n (%)
Back pain, Total [2]: 4 (24) n (%)
Contusion, Total [2]: 4 (24) n (%)
Decreased appetite, Total [2]: 9 (53) n (%)
Dehydration, Total [2]: 5 (29) n (%)
Diarrhoea, Total [2]: 7 (41) n (%)
Dizziness, Total [2]: 5 (29) n (%)
Dyspnoea, Total [2]: 9 (53) n (%)
Fall, Total [2]: 4 (24) n (%)
Fatigue, Total [2]: 10 (59) n (%)
Headache, Total [2]: 4 (24) n (%)
Hypocalcaemia, Total [2]: 6 (35) n (%)
Hypokalemia, Total [2]: 5 (29) n (%)
Hypophosphataemia, Total [2]: 5 (29) n (%)
Hypotension, Total [2]: 5 (29) n (%)
Hypoxia, Total [2]: 4 (24) n (%)
Lipase increased, Total [2]: 5 (29) n (%)
Lymphocyte count decreased, Total [2]: 5 (29) n (%)
Nausea, Total [2]: 8 (47) n (%)
Neutrophil count decreased, Total [2]: 4 (24) n (%)
Non-cardiac chest pain, Total [2]: 4 (24) n (%)
Oedema peripheral, Total [2]: 7 (41) n (%)
Platelet count decreased, Total [2]: 7 (41) n (%)
Pleural effusion, Total [2]: 5 (29) n (%)
Vomiting, Total [2]: 4 (24) n (%)
Weight decreased, Total [2]: 7 (41) n (%)
White blood cell count decreased, Total [2]: 5 (29) n (%)
Dose-limiting toxicity (DLT) (20-mg dose cohort, 3 DLT-evaluable patients): None
Dose-limiting toxicity (DLT) (30-mg BIW dose cohort, 3 + 3 DLT-evaluable patients): None and No DLT
Patients with DLT: Grade 3 fatigue on days of HBI-8000 administration (40-mg cohort, 6 DLT-evaluable patients, RCC patient): 1 patient
Patients with DLT: Grade 3 headache after first dose and grade 3 diarrhea after third dose (40-mg cohort, 6 DLT-evaluable patients, melanoma patient): 1 patient
Any SAE, number of subjects (Total, all dose levels, N = 17): 11 n
Any TEAE, number of subjects (Total, all dose levels, N = 17): 17 n
TEAE related to HBI-8000 & Nivolumab, number of subjects (Total, all dose levels, N = 17): 11 n
TEAE related to HBI-8000 alone, number of subjects (Total, all dose levels, N = 17): 10 n
TEAE resulting in discontinuation of HBI-8000 alone, number of subjects (Total, all dose levels, N = 17): 5 n
TEAE resulting in discontinuation of both HBI-8000 and Nivo, number of subjects (Total, all dose levels, N = 17): 3 n
Patients who died of TEAE (unrelated to HBI-8000 or nivolumab) (all dose levels, N = 17): One
Patients with Grade 3 or higher TEAEs (all dose levels, N = 17): 15 patients
Patients with only Grade 1 and 2 TEAEs (all dose levels, N = 17): Two
Subjects with TEAEs attributed to the combination and TEAEs associated with HBI-8000 alone (all dose levels, N = 17): Six
Recommended phase II dose (RP2D) (in combination with nivolumab): 30 mg BIW
Maximum tolerated dose (MTD) (oral BIW in combination with nivolumab): < 40 mg
